Test results: ChEMBL document CHEMBL4619774 (J Med Chem, 2020)

Assays:
[1] = target: T1, Urokinase-type plasminogen activator (Homo sapiens, UniProt P00749); assay type: ADME
[2] = target: Coagulation factor IX (Homo sapiens, UniProt P00740); assay type: single protein
[3] = Dose normalized Cmax in C57BL/6 mouse at 1 mg/kg, iv bolus injection or 3 mg/kg, po by LC-MS/MS analysis; assay type: ADME, organism-based; settings: in vivo
[4] = Terminal half life in C57BL/6 mouse at 1 mg/kg, iv bolus injection or 3 mg/kg, po by LC-MS/MS analysis; assay type: ADME, organism-based; settings: in vivo, read-out: beta t1/2 (converted)
[5] = target: Coagulation factor X (Homo sapiens, UniProt P00742); assay type: single protein
Chain of Coagulation factor X (P00742 41-179 limits assumed): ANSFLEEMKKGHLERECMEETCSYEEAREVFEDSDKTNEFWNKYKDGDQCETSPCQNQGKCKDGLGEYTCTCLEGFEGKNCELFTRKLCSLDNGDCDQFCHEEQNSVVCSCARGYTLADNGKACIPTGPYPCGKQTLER
Chain of Coagulation factor X (P00742 235-488 limits assumed): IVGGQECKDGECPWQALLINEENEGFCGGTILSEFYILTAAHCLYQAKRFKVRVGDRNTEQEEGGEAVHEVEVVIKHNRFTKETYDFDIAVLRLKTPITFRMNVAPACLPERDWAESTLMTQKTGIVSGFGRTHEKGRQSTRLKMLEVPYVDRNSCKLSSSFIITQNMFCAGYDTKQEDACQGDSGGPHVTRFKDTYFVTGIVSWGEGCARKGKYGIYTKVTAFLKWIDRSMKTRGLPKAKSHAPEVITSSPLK

[6] = Oral bioavailability in C57BL/6 mouse at 3 mg/kg by LC-MS/MS analysis; assay type: ADME, organism-based; settings: in vivo
[7] = target: Prothrombin (Homo sapiens, UniProt P00734); assay type: single protein
[8] = target: Complement factor D (Homo sapiens, UniProt P00746); assay type: single protein
Chain of Complement factor D (P00746 whole entry): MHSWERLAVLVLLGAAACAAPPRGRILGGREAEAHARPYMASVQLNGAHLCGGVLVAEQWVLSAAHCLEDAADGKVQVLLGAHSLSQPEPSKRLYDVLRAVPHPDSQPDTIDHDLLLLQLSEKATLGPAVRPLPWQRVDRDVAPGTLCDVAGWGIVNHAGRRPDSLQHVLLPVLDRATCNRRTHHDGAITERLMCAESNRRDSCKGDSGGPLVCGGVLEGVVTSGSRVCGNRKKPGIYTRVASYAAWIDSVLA

[9] = Volume of distribution at steady state in C57BL/6 mouse at 1 mg/kg, iv bolus injection or 3 mg/kg, po by LC-MS/MS analysis; assay type: ADME, organism-based; settings: in vivo, read-out: Vdss
[10] = tested on: Plasma; test: Anticoagulant activity in human plasma assessed as concentration required to double the activated partial thromboplastin time incubated for 3 mins followed by calcium chloride addition by aPTT-s reagent based automated coagulometric method; assay type: functional
[11] = target: T2, Coagulation factor VII (Homo sapiens, UniProt P08709); assay type: single protein
T2 sequence (P08709 whole entry): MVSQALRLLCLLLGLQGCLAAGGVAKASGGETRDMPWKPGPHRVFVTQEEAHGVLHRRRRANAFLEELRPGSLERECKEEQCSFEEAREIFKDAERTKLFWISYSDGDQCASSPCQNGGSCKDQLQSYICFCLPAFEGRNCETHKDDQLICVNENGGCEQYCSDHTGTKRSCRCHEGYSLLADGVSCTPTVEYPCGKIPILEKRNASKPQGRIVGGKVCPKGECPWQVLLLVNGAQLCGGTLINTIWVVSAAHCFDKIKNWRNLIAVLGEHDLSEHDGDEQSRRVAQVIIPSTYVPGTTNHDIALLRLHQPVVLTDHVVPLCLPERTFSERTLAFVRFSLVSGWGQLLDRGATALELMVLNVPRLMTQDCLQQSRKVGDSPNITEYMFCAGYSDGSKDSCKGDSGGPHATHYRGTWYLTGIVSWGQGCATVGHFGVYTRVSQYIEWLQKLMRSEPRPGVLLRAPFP

[12] = target: 3',5'-cyclic-AMP phosphodiesterase 4D (Homo sapiens, UniProt Q08499); test: Inhibition of PDE4D (unknown origin)
Chain of 3',5'-cyclic-AMP phosphodiesterase 4D (Q08499 whole entry): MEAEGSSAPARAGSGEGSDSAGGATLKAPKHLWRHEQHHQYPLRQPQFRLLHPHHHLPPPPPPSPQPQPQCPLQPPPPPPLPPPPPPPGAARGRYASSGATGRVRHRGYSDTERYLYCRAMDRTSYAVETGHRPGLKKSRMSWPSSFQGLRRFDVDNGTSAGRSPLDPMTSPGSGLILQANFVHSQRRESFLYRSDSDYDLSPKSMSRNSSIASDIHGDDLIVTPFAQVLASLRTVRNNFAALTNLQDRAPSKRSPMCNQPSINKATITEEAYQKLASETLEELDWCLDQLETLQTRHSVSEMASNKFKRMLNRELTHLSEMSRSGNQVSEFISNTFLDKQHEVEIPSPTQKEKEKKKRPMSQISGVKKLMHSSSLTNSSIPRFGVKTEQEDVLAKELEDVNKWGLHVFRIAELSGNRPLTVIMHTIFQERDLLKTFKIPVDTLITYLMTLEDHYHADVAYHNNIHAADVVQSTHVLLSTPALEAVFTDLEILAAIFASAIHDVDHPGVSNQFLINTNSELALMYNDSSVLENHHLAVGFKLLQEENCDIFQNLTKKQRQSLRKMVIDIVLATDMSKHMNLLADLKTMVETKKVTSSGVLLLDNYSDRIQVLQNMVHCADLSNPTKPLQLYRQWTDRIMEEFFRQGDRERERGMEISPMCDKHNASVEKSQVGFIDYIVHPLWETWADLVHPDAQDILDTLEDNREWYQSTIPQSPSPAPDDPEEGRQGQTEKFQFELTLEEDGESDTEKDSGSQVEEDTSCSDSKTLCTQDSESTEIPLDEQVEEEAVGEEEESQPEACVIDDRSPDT

[13] = Clearance in C57BL/6 mouse at 1 mg/kg, iv bolus injection or 3 mg/kg, po by LC-MS/MS analysis; assay type: ADME, organism-based; settings: in vivo
[14] = target: Prostaglandin G/H synthase 1 (Homo sapiens, UniProt P23219); test: Inhibition of COX1 (unknown origin)
Chain of Prostaglandin G/H synthase 1 (P23219 whole entry): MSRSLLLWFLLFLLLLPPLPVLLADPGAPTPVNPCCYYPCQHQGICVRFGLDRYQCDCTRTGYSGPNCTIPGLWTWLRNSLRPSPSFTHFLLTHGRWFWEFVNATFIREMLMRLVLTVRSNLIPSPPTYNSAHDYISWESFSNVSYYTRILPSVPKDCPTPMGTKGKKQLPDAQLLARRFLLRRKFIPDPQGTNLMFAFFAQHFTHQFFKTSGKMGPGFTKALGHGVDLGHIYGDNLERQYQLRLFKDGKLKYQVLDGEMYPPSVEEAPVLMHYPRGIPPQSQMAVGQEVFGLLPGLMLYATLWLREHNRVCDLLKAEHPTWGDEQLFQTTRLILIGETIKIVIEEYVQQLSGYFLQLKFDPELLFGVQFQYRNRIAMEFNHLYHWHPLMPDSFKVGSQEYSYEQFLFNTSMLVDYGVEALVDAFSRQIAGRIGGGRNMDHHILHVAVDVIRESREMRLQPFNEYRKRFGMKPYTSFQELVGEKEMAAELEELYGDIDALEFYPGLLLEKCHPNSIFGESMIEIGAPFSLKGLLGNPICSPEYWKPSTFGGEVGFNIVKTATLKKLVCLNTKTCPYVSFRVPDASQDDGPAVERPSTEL

[15] = Dose normalized AUC in C57BL/6 mouse at 3 mg/kg, po by LC-MS/MS analysis; assay type: ADME, organism-based; settings: in vivo
[16] = target: Tissue-type plasminogen activator (Homo sapiens, UniProt P00750); assay type: single protein
Chain of Tissue-type plasminogen activator (P00750 whole entry): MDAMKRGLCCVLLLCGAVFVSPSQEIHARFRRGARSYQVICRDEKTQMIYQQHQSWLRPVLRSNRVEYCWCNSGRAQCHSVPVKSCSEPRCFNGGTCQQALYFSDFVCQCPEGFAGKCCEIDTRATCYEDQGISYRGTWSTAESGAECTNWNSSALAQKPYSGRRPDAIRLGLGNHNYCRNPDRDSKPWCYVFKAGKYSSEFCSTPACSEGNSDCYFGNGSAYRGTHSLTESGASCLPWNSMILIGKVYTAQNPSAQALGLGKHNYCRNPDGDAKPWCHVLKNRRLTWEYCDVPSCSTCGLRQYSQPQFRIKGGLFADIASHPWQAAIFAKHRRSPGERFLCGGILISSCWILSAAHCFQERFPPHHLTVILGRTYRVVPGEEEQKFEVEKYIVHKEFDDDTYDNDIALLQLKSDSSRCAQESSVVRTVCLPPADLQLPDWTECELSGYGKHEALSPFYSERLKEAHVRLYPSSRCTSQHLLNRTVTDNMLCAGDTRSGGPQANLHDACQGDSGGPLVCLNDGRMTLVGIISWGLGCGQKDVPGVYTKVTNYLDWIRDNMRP

[17] = tested on: Plasma; test: Effect on coagulation in human plasma assessed as concentration required to double the prothrombin time by thromboplastin-DS reagent based automated coagulometric method; assay type: ADME, cell-free
[18] = target: Synaptic vesicular amine transporter (Homo sapiens, UniProt Q05940); test: Inhibition of VMAT2 (unknown origin)
Chain of Synaptic vesicular amine transporter (Q05940 whole entry): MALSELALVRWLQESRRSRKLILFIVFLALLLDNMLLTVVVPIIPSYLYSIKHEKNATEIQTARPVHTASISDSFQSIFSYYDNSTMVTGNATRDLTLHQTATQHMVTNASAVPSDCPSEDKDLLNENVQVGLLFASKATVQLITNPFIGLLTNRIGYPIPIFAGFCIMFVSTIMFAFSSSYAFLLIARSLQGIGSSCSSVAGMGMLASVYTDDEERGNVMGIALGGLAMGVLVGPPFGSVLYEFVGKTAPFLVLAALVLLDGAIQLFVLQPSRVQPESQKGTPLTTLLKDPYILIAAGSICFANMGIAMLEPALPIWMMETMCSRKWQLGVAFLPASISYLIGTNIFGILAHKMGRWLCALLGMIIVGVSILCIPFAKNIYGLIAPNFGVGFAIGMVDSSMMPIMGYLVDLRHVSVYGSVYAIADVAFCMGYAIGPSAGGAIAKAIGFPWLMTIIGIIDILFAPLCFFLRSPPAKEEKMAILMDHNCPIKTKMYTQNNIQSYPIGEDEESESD

[19] = target: T1, Urokinase-type plasminogen activator; assay type: single protein
[20] = target: Plasminogen (Homo sapiens, UniProt P00747); assay type: single protein
Chain of Plasminogen (P00747 97-580 limits assumed): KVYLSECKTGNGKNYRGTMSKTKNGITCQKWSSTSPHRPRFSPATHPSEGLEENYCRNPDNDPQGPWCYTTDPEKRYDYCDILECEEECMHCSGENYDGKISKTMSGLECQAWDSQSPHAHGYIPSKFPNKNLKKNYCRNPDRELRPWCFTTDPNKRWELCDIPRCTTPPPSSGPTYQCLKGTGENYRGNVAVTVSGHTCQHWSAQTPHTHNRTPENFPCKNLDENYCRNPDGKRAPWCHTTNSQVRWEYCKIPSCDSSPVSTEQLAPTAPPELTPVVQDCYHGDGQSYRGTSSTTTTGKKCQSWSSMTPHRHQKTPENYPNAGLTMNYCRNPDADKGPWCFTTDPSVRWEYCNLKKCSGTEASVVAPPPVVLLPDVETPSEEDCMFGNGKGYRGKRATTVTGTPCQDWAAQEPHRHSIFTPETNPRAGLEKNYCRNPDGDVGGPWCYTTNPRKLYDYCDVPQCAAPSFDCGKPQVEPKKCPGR
Chain of Plasminogen (P00747 581-810 limits assumed): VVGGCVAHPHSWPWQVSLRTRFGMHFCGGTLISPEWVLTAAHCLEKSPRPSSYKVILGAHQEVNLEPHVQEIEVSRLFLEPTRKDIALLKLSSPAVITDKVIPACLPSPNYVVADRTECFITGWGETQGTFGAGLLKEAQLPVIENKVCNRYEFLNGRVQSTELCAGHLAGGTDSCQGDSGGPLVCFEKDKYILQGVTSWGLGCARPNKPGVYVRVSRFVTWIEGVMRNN

[21] = Terminal half life in C57BL/6 mouse at 0.4 mg/kg, iv bolus injection or 3 mg/kg, po by LC-MS/MS analysis; assay type: ADME, organism-based; settings: in vivo, read-out: beta t1/2 (converted)
[22] = target: T3, Coagulation factor XI (Homo sapiens, UniProt P03951); test: Inhibition of human F11a using D-Leu-Pro-Arg*Rh110-D-Pro as substrate preincubated for 60 mins followed by substrate addition and measured after 60 mins by fluorescence assay
T3 sequence (P03951 19-387 limits assumed): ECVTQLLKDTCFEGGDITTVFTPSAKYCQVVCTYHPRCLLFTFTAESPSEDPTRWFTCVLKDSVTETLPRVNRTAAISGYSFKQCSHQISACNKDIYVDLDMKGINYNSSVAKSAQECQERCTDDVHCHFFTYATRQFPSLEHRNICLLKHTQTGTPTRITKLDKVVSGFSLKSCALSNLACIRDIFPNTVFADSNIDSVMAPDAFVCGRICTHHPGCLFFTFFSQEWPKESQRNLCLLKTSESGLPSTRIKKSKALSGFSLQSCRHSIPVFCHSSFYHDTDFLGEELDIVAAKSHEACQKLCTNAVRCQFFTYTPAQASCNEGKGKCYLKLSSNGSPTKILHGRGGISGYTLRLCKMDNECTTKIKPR
T3 sequence (P03951 388-625 limits assumed): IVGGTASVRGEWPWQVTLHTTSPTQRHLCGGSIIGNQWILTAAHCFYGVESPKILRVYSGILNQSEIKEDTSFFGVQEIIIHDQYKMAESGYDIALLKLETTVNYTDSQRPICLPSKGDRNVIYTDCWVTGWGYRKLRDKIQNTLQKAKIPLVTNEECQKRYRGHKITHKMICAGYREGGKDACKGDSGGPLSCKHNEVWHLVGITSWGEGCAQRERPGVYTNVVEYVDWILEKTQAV

[23] = Volume of distribution at steady state in C57BL/6 mouse at 0.4 mg/kg, iv bolus injection or 3 mg/kg, po by LC-MS/MS analysis; assay type: ADME, organism-based; settings: in vivo, read-out: Vdss
[24] = Tmax in C57BL/6 mouse at 0.4 mg/kg, iv bolus injection or 3 mg/kg, po by LC-MS/MS analysis; assay type: ADME, organism-based; settings: in vivo
[25] = target: T3, Coagulation factor XI; test: Inhibition of […] human plasma F11a catalytic domain expressed in Escherichia coli strain BL21(DE3) using D-Leu-Pro-Arg*Rh110-D-Pro as substrate preincubated for 60 mins followed by substrate addition and measured after 60 mins by fluorescence assay
[26] = Dose normalized Cmax in C57BL/6 mouse at 0.4 mg/kg, iv bolus injection or 3 mg/kg, po by LC-MS/MS analysis; assay type: ADME, organism-based; settings: in vivo
[27] = target: Plasma kallikrein (Homo sapiens, UniProt P03952); assay type: single protein
[28] = species: Homo sapiens; test: Selectivity ratio of IC50 for inhibition of human complement FD to IC50 for inhibition of human F11a
[29] = Clearance in C57BL/6 mouse at 0.4 mg/kg, iv bolus injection or 3 mg/kg, po by LC-MS/MS analysis; assay type: ADME, organism-based; settings: in vivo
[30] = Dose normalized AUC in C57BL/6 mouse at 0.4 mg/kg, iv bolus injection by LC-MS/MS analysis; assay type: ADME, organism-based; settings: in vivo

Chain of Coagulation factor IX (P00740 47-191 limits assumed): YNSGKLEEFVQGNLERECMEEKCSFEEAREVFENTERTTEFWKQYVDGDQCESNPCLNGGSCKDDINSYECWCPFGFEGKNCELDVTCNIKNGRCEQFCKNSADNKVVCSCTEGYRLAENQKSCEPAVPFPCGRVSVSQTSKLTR
Chain of Coagulation factor IX (P00740 227-461 limits assumed): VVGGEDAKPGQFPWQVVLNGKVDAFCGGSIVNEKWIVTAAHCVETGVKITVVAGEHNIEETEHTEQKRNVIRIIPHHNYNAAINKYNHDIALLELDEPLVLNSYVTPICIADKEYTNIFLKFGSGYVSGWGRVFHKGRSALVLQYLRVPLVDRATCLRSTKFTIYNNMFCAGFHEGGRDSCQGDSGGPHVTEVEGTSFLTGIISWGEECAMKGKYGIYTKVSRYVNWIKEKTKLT

Structure (SMILES)	IC50 [2] [nM]	IC50 [5] [nM]	bioavailability [6] [%]	IC50 [7] [nM]	IC50 [8] [nM]	IC50 [11] [µM]	AUC/dose [15] [nM·h]	IC50 [16] [nM]	IC50 [19] [nM]	IC50 [20] [nM]	also measured
CC(C)c1cc(COc2ccccc2CC(=O)O)cc(-c2ccc3c(c2)[C@H](N)CO3)c1	170	500	100	90	40	5.1	48927	90	47	2600	IC50 [1]: 47 nM; Cmax/dose [3]: 5.263 µM; half-life [4]: 330 min; Vd [9]: 0.4 L/kg; 2aPTT [10]: 2.2 µM; IC50 [12]: 7.2 µM; clearance [13]: 1 mL/min/kg; IC50 [14]: 3.3 µM; 2PT [17]: 9.9 µM; IC50 [18]: 5.2 µM
CC(C)c1cc(CCN2CCc3cccc(C(=O)O)c32)cc(-c2ccc3c(c2)[C@H](N)CO3)c1	3300	1830	36	3080	4410	6.23	14041	660	520	2560	half-life [21]: 552 min; IC50 [22]: 6 nM; Vd [23]: 0.4 L/kg; Tmax [24]: 42 min; IC50 [25]: 220 nM; Cmax/dose [26]: 1495 nM; IC50 [27]: 58 nM; Ratio IC50 [28]: 700; clearance [29]: 1 mL/min/kg; AUC/dose [30]: 38652 nM·h
